Experimental data from ChEMBL document CHEMBL1201862, “PubChem BioAssay data set” (2004).
The source made the active and inactive calls.

Tests used:
[1] = target: fMet-Leu-Phe receptor (Homo sapiens, UniProt P21462); experiment: FPR ligands, dose response (AID 519); format: functional
[2] = target: Protein Tat (Human immunodeficiency virus type 1 group M subtype B (isolate HXB2)(HIV-1), UniProt P04608); format: functional;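 note: tat binding to TAR RNA read out by fluorescence polarization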
[3] = test system: Streptococcus sp. 'group A'; experiment: growth inhibition of control SK(-) GAS strain, dose response, counter-screen for streptokinase expression inhibitor project, luminescence, kanamycin, BacTiterGlo, confirmation (AID 1900); format: functional, organism-based
[4] = target: Disintegrin and metalloproteinase domain-containing protein 17 (Homo sapiens, UniProt P78536); experiment: ADAM17 protease inhibitors, dose response, counter-screen for ADAM10 exosite inhibitor project, biochemical, quenched FRET substrate (AID 743253)
[5] = target: T1, Fatty acid synthase (Homo sapiens, UniProt P49327); experiment: FAS thioesterase domain inhibitors, dose response, biochemical, endpoint fluorescence intensity, uHTS hits (AID 624327); format: functional;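 note: fluorescence from hydrolysis of an O-methyl fluorescein acyl ester substrate by the enzyme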
[6] = target: T1, Fatty acid synthase; experiment: FAS thioesterase domain inhibitors, dose response, biochemical, kinetic fluorescence intensity (AID 624326); format: functional;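 note: rate of fluorescence rise from hydrolysis of a fluorogenic O-methyl fluorescein ester substrate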
[7] = target: T2, Streptokinase A (Streptococcus pyogenes serotype M1, UniProt P10520); experiment: S. pyogenes streptokinase expression inhibitors, potency, dose response, plasminogen activation absorbance, OD405 (AID 1914); format: functional, Streptococcus pyogenes M1 GAS;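 note: secreted streptokinase activity via plasminogen activation per viability signal from cell pellet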
T2 sequence (P10520 whole entry): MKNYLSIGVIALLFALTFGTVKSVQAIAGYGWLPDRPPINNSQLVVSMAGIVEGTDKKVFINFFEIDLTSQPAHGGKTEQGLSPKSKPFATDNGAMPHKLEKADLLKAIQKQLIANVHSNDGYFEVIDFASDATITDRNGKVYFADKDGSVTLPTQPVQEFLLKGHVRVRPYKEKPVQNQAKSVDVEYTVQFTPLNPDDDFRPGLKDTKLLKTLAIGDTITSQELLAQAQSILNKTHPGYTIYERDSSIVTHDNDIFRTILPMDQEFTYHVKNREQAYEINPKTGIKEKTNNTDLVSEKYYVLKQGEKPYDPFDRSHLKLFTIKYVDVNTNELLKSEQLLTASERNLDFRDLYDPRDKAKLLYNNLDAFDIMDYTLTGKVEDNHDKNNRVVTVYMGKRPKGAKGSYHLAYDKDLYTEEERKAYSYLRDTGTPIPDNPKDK

[8] = ADAM10 inhibitors, peptide cleavage, dose response, biochemical, QFRET (AID 743254);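 note: ADAM10 enzyme with the DM2 quenched FRET peptide as substrate; EDANS fluorescence gain as the protease cuts the substrate; inhibitor potency against ADAM10 proteolytic activity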
[9] = test system: Streptococcus; experiment: Group A Streptococcus viability loss, dose response, counter-screen for streptokinase expression inhibitor project, luminescence, BacTiterGlo (AID 1915); format: functional, organism-based;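 note: potency for reduction of bacterial viability or growth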
[10] = HEK293T cytotoxicity, dose response, cytotoxicity control for miR-122 modulator project, cell-based, activator set, cherry-pick (AID 720690); format: functional;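 note: HEK293T human cells scored for general mammalian cytotoxicity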
[11] = target: Paired box protein Pax-8 (Homo sapiens, UniProt Q06710); experiment: inhibitors of PAX8-driven TPO luciferase reporter, dose response, RMG-I cells, cherry-pick (AID 687027); format: functional, cell-based;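 note: luciferase reporter driven by Pax8 target thyroperoxidase promoter measured by SteadyGlo luminescence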
[12] = HEK293T cytotoxicity, dose response, cytotoxicity control for miR-122 modulator project, cell-based, inhibitor set, cherry-pick, set 2 (AID 720697); format: functional
[13] = NIH:OVCAR-3 ovarian cancer cell cytotoxicity, dose response, PAX8 inhibitor project, plate reader, dry powder samples (AID 743044); format: functional, cell-based
[14] = miR-122 activators in hepatoma reporter cells, dose response, cell-based, Huh7 psiCHECK-miR122, Renilla luciferase, cherry-picked (AID 651956); format: functional;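 note: huh7 hepatoma cells stably carrying a psiCHECK-2 miR-122 sensor plasmid; renilla luciferase signal reporting endogenous miR-122 activity after 48 h compound exposure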
[15] = off-target signal loss in HeLa-CEM21 co-culture – HeLa F-luc CTL cells, cherry-picked, counter-screen for HIV-1 Env fusion inhibitor project, dose response (AID 652040); format: functional, cell-based;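 note: potency for signal decrease marking cytotoxic or nonspecific inhibition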
[16] = ZM109 Env clade C HIV-1 fusion inhibitors, dose response, HeLa effector, CEM target cells, luciferase, cherry-pick (AID 652058); format: functional, cell-based
[17] = target: T3, Galanin receptor type 3 (Homo sapiens, UniProt O60755); experiment: Fluorescence-based cell-based primary high throughput dose response assay to identify antagonists of the Galanin Receptor 3 (GalR3).; format: functional
T3 sequence (O60755 whole entry): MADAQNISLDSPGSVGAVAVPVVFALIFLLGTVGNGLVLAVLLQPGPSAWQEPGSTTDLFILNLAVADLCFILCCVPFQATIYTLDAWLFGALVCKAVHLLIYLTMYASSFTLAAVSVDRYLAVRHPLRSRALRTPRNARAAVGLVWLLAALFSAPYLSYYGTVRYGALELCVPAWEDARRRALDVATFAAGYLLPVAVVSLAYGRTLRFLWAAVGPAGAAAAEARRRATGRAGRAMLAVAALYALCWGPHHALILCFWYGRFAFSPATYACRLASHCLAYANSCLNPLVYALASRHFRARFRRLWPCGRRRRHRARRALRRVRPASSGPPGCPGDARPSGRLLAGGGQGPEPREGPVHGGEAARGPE

[18] = inhibitors of clade B AD8 Env fusion, dose response, cell-based, cherry-pick (AID 652062); format: functional;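 note: luciferase signal from cell-cell fusion driven by HIV-1 clade B AD8 Env; potency is for inhibitors of fusion seen as a drop in luminescence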
[19] = target: COUP transcription factor 2 (Homo sapiens, UniProt P24468); experiment: Luminescence-based cell-based high throughput dose response assay to identify inhibitors of COUP-TFII (NR2F2).; format: functional;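 note: HEK293 cells transiently cotransfected with COUP-TFII expression vector and reporter; luciferase reporter luminescence driven by COUP-TFII from the pX2-168 reporter plasmid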
[20] = cells; format: functional, cell-based; conditions: HEK-CNG
[21] = MC4R antagonists, dose response, counter-screen for LGR2 antagonist project, cell-based, plate reader, cherry pick (AID 743444); format: functional;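 note: transfected HEK 293 cells stimulated with alpha-MSH peptide; potency of inhibitors of the alpha-MSH evoked signal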
[22] = cytotoxicity in OVCAR8 ovarian cancer cells, dose response, PAX8 project, cell-based, plate reader, dry powder samples (AID 743197); format: functional; conditions: OVCAR-8
[23] = P. falciparum 3D7-ScDHODH growth inhibitors, dose response, SYBR Green, dry powder samples (AID 1159570); format: functional, cell-based;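 note: parasite growth measured after 72 hours of compound exposure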
[24] = A549 cell cytotoxicity, dose response, cytotoxicity control, plate reader, cherry-pick, antagonist series (AID 743412); format: functional, cell-based
[25] = HepG2 cell cytotoxicity, dose response, cytotoxicity control, plate reader, dry powder samples (AID 1159569); format: functional, cell-based;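 note: inhibitor potency with signal falling toward the positive control level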
[26] = IGROV1 ovarian cancer cell cytotoxicity, dose response, PAX8 inhibitor project, plate reader, dry powder samples (AID 743043); format: functional, cell-based; conditions: IGROV-1
[27] = P. falciparum ATP4 D1247Y mutant growth inhibitors, dose response, NITD609-resistant line, SYBR Green, dry powder (AID 1159571); format: functional, cell-based;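 note: parasites synchronized at ring stage by sorbitol before testing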
[28] = P. falciparum Dd2 growth inhibitors, dose response, SYBR Green, cherry-picked samples (AID 1159567); format: functional, cell-based
[29] = HepG2 cell cytotoxicity, dose response, cytotoxicity control, plate reader, cherry-pick, antagonist series (AID 743416); format: functional, cell-based
[30] = P. falciparum Dd2 growth inhibitors, dose response, SYBR Green, dry powder samples (AID 1159566); format: functional, cell-based;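 note: potency for growth inhibition with lower SYBR green DNA signal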
[31] = LGR2 antagonists, dose response, cell-based, HEK293, CRE-luciferase reporter, cherry pick, set 2 (AID 743343); format: functional;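 note: transfected cells were stimulated with diluted bursicon conditioned medium after compound addition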
[32] = HEK293 cell cytotoxicity, dose response, cytotoxicity control, plate reader, cherry-picked samples (AID 743446); format: functional, cell-based
[33] = IOSE-T80 ovarian epithelial cell cytotoxicity, dose response, cytotoxicity control for PAX8 inhibitor project, plate reader, dry powder samples (AID 743045); format: functional, cell-based
[34] = A2780 ovarian cancer cell cytotoxicity, dose response, cytotoxicity control, plate reader, dry powder samples (AID 743046); format: functional, cell-based
[35] = HepG2 cell cytotoxicity, dose response, cytotoxicity control, cherry-picked samples (AID 1159577); format: functional, cell-based

Sequence of fMet-Leu-Phe receptor (P21462 whole entry): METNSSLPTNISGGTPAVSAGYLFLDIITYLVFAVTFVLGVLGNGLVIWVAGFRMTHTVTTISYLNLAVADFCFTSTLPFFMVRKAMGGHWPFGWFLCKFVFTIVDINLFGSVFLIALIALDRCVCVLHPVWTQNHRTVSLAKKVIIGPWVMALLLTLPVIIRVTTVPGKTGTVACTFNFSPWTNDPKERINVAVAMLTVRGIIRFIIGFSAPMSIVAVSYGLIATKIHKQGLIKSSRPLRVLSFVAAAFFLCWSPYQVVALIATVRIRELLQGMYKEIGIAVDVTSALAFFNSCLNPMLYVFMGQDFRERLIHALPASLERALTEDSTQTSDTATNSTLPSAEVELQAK
T1 sequence (P49327 whole entry, the tested form may be a part): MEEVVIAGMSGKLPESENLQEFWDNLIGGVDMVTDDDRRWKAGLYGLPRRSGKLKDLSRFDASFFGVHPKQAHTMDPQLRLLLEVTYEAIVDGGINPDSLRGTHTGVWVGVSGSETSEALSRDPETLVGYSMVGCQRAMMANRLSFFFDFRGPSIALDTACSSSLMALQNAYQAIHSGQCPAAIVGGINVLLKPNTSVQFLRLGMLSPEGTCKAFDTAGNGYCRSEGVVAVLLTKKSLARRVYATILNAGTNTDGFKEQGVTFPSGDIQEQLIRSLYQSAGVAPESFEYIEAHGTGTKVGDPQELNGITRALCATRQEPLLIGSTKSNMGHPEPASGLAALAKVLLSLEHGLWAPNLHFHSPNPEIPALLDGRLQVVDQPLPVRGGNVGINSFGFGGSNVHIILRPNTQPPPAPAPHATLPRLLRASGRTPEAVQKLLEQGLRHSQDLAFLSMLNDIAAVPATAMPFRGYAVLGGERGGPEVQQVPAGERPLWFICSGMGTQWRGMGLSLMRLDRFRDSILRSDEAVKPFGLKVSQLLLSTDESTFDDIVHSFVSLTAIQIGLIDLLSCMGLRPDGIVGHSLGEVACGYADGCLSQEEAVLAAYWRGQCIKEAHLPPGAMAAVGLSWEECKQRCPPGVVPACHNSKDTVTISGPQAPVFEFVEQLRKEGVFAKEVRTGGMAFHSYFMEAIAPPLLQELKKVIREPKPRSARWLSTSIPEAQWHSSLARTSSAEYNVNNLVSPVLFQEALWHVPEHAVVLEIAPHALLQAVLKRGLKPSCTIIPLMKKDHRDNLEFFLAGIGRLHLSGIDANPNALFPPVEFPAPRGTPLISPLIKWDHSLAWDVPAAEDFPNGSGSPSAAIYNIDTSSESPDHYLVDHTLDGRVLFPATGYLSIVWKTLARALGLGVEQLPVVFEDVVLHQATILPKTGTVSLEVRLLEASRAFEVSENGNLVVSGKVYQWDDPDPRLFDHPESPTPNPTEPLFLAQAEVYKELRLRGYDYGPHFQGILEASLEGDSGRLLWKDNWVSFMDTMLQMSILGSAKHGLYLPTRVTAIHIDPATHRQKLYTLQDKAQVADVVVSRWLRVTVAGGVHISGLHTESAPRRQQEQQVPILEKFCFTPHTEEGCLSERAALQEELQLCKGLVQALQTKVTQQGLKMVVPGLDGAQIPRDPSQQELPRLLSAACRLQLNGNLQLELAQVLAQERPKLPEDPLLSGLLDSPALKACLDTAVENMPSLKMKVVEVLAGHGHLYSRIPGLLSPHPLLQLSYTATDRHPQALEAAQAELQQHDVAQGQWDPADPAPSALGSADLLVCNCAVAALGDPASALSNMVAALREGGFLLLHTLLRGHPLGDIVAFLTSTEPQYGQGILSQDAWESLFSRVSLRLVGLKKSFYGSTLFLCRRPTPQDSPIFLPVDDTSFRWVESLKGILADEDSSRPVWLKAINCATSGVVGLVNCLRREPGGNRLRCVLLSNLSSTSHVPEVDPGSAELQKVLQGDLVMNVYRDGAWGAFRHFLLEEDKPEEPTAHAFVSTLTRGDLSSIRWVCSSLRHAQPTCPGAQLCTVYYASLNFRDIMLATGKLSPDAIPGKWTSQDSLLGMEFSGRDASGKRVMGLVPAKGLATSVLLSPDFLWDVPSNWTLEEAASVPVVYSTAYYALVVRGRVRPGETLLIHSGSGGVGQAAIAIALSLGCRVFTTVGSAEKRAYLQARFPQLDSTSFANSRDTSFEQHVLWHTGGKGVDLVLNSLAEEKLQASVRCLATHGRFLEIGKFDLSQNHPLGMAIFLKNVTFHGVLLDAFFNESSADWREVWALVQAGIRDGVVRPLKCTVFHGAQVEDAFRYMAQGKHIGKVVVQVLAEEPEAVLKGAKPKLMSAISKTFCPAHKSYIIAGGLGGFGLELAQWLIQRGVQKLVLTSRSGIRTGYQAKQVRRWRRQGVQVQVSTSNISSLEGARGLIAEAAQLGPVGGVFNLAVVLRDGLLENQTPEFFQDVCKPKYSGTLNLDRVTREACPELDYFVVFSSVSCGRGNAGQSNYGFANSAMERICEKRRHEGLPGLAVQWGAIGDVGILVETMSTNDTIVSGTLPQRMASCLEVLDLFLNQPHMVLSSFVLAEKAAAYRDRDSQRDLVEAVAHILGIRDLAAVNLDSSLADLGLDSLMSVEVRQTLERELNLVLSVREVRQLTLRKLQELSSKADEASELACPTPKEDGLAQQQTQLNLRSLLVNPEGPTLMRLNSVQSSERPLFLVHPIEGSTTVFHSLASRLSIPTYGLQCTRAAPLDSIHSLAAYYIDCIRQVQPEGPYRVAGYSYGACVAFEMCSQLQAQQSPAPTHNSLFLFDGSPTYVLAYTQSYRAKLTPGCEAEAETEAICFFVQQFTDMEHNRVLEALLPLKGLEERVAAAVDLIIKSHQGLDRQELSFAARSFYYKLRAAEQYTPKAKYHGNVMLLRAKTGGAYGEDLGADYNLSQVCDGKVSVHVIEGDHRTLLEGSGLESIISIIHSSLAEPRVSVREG
Sequence of Paired box protein Pax-8 (Q06710 whole entry): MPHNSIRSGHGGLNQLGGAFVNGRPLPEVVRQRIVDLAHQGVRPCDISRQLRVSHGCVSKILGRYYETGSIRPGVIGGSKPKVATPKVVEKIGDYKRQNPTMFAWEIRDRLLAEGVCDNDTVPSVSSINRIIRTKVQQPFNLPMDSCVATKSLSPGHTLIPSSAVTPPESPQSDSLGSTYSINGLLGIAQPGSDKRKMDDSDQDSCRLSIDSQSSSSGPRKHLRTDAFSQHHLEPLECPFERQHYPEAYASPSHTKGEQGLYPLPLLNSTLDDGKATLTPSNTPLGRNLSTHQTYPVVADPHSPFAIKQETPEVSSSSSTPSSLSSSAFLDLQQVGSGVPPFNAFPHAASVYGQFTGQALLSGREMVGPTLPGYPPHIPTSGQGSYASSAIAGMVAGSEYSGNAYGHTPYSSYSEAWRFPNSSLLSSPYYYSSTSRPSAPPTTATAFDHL
Sequence of Protein Tat (P04608 whole entry): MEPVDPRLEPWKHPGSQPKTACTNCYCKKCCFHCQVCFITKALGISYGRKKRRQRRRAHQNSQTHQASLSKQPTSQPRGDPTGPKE
Sequence of COUP transcription factor 2 (P24468 whole entry): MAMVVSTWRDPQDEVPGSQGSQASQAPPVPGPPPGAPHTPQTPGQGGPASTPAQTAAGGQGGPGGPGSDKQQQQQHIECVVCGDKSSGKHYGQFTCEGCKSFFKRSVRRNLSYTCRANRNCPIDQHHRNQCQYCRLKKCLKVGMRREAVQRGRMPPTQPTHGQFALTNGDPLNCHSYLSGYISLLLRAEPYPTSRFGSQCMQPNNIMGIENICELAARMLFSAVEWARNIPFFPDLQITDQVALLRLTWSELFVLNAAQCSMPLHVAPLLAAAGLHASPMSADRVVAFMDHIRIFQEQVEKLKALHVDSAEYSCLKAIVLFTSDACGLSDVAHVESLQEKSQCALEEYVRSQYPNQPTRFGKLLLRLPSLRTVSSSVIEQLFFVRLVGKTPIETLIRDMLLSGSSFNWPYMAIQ
Sequence of Disintegrin and metalloproteinase domain-containing protein 17 (P78536 whole entry, the tested form may be a part): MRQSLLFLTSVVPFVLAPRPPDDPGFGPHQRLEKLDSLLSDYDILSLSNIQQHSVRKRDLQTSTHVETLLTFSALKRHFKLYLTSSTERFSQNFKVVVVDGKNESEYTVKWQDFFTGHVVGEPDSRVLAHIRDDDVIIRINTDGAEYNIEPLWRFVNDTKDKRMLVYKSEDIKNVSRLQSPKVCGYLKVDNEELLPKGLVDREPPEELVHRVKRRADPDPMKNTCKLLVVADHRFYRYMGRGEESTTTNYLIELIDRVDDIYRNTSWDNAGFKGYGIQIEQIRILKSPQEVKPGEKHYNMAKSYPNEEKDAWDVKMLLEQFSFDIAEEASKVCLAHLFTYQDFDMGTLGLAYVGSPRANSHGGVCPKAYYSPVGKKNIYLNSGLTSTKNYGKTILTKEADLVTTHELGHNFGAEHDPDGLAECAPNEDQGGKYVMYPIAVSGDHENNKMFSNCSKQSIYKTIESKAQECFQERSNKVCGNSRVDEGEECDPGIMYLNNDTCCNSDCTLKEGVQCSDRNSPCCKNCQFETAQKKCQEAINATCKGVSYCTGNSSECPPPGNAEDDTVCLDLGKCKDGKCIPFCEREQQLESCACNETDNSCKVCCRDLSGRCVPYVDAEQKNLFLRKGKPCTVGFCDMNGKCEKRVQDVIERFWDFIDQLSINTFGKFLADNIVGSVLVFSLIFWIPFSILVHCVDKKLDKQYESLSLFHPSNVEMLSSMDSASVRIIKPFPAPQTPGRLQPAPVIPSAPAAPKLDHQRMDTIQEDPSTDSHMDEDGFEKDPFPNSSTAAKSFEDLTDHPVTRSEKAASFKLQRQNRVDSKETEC

## O=C(C1=C(O)C(=O)N(Cc2ccccc2)C1c1ccncc1)c1ccco1 (stereo not given)
[1]
  Ki: 13.6 µM (active)

## CC(=O)Oc1cccc(N2C(=O)CC(Nc3ccc(N4CCOCC4)cc3)C2=O)c1 (stereo not given)
[2]
  IC50: 10.5 µM (inconclusive)

## Cc1ccc(NC(=O)c2[nH]cnc2C(=O)N[C@@H](CCCCNC(=O)OC(C)(C)C)C(=O)OC(C)(C)C)cc1
[3]
  EC50: 5.58 µM (active)
[4]
  IC50: > 69.5 µM (inactive)
[5]
  IC50: 2.47 µM (active)
[6]
  IC50: 1.09 µM (active)
[7]
  EC50: > 150 µM (not active)
[8]
  IC50: > 7.72 µM (active)
[9]
  EC50: 7.99 µM (active)

## COc1ccc(CN(C)C[C@@H]2OCCCC[C@H](C)Oc3ccc(NC(=O)Nc4ccc(C(F)(F)F)cc4)cc3C(=O)N([C@H](C)CO)C[C@@H]2C)cc1
[10]
  AC50: 14.5 µM (active)
[11]
  AC50: 20.1 µM (active)
[12]
  AC50: 12 µM (active)
[13]
  AC50: 44.6 µM (active)
[14]
  AC50: 17.5 µM (active)

## O=C(Nc1ccc(Oc2ccccc2)cc1)c1csc([C@H]2C[C@H](O)[C@@H](CO)O2)n1
[15]
  AC50: > 70 µM (inactive)
[16]
  AC50: 27.4 µM (active)
[17]
  IC50: 0.4 µM (active)
[18]
  AC50: 5.85 µM (active)
[19]
  IC50: 5.35 µM (active)
[20]
  EC50: > 29.9 µM (inactive)

## O=C(C1CC1)N1C[C@@H]2N[C@H](C1)[C@@H]2c1ccc(-c2ccncc2)cc1
[21]
  AC50: 4.85 µM (active)
[22]
  AC50: 12.1 µM (active)
[23]
  AC50: 0.629 µM (active)
[24]
  AC50: 2.89 µM (active)
[25]
  AC50: > 100 µM (inactive)
[11]
  AC50: 2.98 µM (active)
[26]
  AC50: 13.1 µM (active)
[27]
  AC50: 0.974 µM (active)
[28]
  AC50: 0.965 µM (active)
[13]
  AC50: 13.2 µM (active)
[29]
  AC50: 21.4 µM (active)
[30]
  AC50: 0.555 µM (active)
[31]
  AC50: 5.41 µM (active)
[32]
  AC50: 24.5 µM (active)
[33]
  AC50: 12.2 µM (active)
[34]
  AC50: 12.7 µM (active)

## O=C(NCC1CCCO1)c1ccc(NC(=O)C2CCCCC2C(=O)O)cc1 (stereo not given)
[1]
  Ki: > 66.7 µM (inactive)

## OC[C@H]1[C@@H](c2ccc(-c3cccc(F)c3)cc2)[C@@H]2CN(CCC(F)(F)F)CCCCN12
[23]
  AC50: 1.12 µM (active)
[25]
  AC50: 12.8 µM (active)
[27]
  AC50: 0.832 µM (active)
[28]
  AC50: 1.84 µM (active)
[30]
  AC50: 0.618 µM (active)
[35]
  AC50: 28.5 µM (active)

## C[C@@H]1CN([C@@H](C)CO)C(=O)Cc2cc(NC(=O)Nc3ccc(F)cc3)ccc2O[C@H]1CN(C)Cc1ccc(Oc2ccccc2)cc1
[28]
  AC50: 1.5 µM (active)
[35]
  AC50: 15.1 µM (active)
